Results on one compound are retold here after ChEMBL document CHEMBL1151399, “Identification of terpenoids from the leaves of Piptocarpha paradoxa and their biological activities” (J Nat Prod, 1982).

Holding throughout (assay type): functional, organism-based
For one experiment, the system named is Klebsiella aerogenes. In words: Antimicrobial activity against Enterobacter aerogenes Kruse 1896 by Kirby and Baur method.
A further experiment relates to Kocuria rosea. In words: Antimicrobial activity against Micrococcus roseus Flugge 1886 by Kirby and Baur method.
Another experiment deals with Staphylococcus aureus. In words: Antimicrobial activity against Staphylococcus aureus Rosenbach 1884 by Kirby and Baur method.
A further experiment concerns Salmonella typhi. In words: Antimicrobial activity against Salmonella typhi Zopf 1884 by Kirby and Baur method. The settings on record: Salmonella enterica subsp. enterica serovar Typhi.
In another experiment the test system is Escherichia coli. Description: Antimicrobial activity against Escherichia coli Migula 1895 by Kirby and Baur method.
A further experiment concerns Providencia rettgeri. Description: Antimicrobial activity against Proteus rettgeri Hadley 1918 by Kirby and Baur method.
The subject of a further experiment is Streptococcus sp. Description: Antimicrobial activity against Streptococcus sp. Rosenbach 1884 by Kirby and Baur method.
In a further experiment the test system is Candida. In words: Antimicrobial activity against Candida sp. Berkhout by Kirby and Baur method.

Calls of active or inactive are those of the source. The calls are words filed in the database; no cut-off is given here.

As to `C=C1CCC2CC1C(C)(C)CC(O)/C=C\2C` (stereo not drawn), the outcome with Klebsiella aerogenes, with Kocuria rosea, in the experiment with Salmonella typhi, with Escherichia coli, in the experiment with Providencia rettgeri and in the experiment with Streptococcus sp. was inactive. Besides, the outcome with Candida was inactive. The result in the experiment on Staphylococcus aureus was Active.
